Experimental data from ChEMBL document CHEMBL3217726, “Asymmetric synthesis of potent chroman-based Rho kinase (ROCK-II) inhibitors” (Medchemcomm, 2011).
pIC50: −log10 of the molar value.

How the values were obtained:
[1] = Inhibition of PKA (unknown origin) after 70 mins by luminescence assay; design: species or system Homo sapiens
[2] = target: Rho-associated protein kinase 2 (Rattus norvegicus, UniProt Q62868); assay: Inhibition of ROCK2-mediated myosin light chain bis-phosphorylation in rat A7r5 cells after 1 hr by TO-PRO-3 iodide staining-based assay; assay type: cell-based
Sequence of Rho-associated protein kinase 2 (Rattus norvegicus, UniProt Q62868) (Q62868 whole entry): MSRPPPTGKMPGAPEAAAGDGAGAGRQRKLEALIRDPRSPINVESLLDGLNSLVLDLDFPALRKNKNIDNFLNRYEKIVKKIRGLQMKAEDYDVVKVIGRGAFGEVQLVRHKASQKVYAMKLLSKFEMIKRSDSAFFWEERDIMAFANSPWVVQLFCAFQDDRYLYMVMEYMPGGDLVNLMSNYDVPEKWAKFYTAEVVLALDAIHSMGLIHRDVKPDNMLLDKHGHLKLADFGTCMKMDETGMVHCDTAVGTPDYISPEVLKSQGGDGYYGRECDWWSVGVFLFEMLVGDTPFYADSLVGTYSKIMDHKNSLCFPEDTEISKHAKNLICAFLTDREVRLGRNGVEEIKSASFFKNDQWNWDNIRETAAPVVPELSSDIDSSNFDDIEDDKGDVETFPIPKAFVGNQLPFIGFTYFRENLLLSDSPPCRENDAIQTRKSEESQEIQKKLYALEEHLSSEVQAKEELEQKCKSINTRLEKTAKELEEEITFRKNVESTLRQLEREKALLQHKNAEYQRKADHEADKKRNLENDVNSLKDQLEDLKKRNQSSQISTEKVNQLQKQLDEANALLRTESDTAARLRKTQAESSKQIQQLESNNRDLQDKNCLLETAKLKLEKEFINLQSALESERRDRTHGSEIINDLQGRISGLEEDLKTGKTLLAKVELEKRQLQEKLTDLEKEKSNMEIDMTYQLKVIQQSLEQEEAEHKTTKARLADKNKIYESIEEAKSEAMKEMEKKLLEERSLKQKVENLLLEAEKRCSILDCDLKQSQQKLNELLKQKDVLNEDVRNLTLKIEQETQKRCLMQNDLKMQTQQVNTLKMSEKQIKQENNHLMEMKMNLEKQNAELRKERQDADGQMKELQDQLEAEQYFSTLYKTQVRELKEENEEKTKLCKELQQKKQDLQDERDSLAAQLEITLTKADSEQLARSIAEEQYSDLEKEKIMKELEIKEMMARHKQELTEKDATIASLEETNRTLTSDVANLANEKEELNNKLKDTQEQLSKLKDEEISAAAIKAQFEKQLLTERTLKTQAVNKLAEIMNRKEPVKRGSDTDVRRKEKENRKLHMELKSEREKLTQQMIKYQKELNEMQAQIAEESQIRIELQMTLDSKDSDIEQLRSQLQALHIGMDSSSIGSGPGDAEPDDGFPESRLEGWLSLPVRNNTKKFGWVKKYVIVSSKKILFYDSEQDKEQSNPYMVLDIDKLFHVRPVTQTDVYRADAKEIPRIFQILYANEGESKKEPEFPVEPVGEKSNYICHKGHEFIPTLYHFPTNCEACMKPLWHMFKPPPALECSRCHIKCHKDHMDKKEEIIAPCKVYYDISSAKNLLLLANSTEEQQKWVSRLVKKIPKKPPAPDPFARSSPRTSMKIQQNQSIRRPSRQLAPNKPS

[3] = target: Rho-associated protein kinase 2 (Homo sapiens, UniProt O75116); assay: Inhibition of ROCK2 (unknown origin) after 4 hrs by HTRF assay
Sequence of Rho-associated protein kinase 2 (Homo sapiens, UniProt O75116) (O75116 whole entry): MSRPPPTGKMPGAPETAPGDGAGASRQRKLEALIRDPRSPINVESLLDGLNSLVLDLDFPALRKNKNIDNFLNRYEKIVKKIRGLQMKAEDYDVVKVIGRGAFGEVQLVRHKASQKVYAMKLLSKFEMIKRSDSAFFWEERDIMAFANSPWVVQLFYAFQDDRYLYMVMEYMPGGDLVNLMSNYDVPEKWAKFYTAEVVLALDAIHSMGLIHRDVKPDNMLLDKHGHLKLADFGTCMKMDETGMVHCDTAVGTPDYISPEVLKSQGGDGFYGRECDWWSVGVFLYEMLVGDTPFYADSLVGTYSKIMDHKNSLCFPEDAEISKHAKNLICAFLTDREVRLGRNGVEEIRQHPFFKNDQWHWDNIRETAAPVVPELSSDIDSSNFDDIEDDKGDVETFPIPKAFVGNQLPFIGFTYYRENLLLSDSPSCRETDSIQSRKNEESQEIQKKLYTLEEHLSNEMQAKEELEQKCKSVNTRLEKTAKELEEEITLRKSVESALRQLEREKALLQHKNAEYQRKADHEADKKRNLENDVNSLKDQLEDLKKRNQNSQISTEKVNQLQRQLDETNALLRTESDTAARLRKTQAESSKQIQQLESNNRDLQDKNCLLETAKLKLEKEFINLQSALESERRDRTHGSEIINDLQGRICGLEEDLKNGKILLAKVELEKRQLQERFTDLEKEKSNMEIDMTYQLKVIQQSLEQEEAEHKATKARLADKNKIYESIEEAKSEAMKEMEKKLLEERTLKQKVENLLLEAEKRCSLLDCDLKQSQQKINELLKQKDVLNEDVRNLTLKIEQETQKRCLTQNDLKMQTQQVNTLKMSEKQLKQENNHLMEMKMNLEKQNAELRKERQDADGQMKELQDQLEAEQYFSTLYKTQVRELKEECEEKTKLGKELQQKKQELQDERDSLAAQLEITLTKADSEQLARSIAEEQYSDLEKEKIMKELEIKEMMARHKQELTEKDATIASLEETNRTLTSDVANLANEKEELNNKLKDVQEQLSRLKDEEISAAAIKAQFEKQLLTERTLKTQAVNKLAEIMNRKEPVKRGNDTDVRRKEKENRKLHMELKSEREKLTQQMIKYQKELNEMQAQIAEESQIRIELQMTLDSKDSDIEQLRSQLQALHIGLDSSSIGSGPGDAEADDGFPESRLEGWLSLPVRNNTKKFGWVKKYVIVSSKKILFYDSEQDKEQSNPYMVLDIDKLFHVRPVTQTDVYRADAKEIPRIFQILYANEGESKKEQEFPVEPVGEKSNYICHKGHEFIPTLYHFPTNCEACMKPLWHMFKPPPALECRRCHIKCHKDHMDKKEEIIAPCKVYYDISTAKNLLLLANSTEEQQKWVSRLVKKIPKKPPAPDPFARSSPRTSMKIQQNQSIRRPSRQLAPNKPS

[4] = target: Serine/threonine-protein kinase MRCK alpha (Homo sapiens, UniProt Q5VT25); assay: Inhibition of MRCK-alpha (unknown origin) using LCB-AKRRRLSSLRA-NH2 as substrate after 75 mins by luminescence assay
Sequence of Serine/threonine-protein kinase MRCK alpha (Q5VT25 whole entry): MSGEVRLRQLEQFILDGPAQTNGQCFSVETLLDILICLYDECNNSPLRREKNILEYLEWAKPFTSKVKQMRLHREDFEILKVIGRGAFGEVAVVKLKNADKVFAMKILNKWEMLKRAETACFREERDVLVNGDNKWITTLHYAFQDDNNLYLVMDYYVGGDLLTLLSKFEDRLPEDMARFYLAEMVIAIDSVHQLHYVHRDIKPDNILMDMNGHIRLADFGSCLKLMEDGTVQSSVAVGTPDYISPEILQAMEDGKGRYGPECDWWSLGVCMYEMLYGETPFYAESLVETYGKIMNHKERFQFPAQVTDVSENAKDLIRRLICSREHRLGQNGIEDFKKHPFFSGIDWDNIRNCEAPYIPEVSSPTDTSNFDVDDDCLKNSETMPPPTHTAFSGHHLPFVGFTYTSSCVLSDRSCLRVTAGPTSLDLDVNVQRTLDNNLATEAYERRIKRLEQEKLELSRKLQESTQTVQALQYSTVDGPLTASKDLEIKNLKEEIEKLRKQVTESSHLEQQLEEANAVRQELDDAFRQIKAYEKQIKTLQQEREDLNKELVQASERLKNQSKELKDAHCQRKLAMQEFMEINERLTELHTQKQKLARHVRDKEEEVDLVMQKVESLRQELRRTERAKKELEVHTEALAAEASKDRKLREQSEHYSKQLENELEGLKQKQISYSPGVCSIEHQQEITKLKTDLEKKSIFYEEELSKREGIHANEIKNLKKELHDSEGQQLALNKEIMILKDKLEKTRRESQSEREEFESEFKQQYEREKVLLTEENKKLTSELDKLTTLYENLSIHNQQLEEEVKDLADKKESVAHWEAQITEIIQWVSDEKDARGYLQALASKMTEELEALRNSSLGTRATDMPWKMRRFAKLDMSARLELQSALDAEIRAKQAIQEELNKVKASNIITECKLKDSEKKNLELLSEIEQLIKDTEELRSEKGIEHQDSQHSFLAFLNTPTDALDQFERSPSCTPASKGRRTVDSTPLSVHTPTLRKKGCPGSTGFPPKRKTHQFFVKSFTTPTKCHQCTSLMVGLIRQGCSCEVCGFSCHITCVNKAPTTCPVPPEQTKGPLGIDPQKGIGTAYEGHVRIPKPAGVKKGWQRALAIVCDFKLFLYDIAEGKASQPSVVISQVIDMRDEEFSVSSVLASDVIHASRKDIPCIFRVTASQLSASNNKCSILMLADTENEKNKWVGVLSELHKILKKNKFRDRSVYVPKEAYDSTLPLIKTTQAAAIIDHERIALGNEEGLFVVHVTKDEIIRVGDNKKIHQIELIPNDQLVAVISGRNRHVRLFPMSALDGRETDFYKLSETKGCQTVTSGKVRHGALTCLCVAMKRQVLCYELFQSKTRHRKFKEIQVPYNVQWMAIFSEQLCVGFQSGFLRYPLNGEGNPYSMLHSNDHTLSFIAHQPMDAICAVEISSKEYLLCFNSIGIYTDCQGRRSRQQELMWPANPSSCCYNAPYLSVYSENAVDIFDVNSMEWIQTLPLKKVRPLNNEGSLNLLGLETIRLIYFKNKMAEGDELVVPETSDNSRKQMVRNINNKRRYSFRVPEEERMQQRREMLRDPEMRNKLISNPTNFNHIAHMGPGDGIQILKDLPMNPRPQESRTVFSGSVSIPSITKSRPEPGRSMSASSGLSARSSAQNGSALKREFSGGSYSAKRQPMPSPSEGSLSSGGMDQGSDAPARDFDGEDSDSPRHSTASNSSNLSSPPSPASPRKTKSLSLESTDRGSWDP

Homo sapiens [5] = species: Homo sapiens; assay: Selectivity ratio of IC50 for PKA (unknown origin) to IC50 for ROCK2 (unknown origin)
Homo sapiens [6] = species: Homo sapiens; assay: Selectivity ratio of IC50 for MRCK-alpha (unknown origin) to IC50 for ROCK2 (unknown origin)

SMILES	pIC50 [1]	pIC50 [2]	pIC50 [3]	pIC50 [4]	Ratio IC50 (Homo sapiens [5])	Ratio IC50 (Homo sapiens [6])
COc1ccc2c(c1)C[C@H](C(=O)Nc1ccc(-c3cn[nH]c3)cc1OCCN(C)C)CO2	5.76	> 8.40	–	–	–	–
COc1ccc2c(c1)C[C@@H](C(=O)Nc1ccc(-c3cn[nH]c3)cc1O[C@@H]1CCN(C)C1)CO2	< 4.70	7.49	7.85	< 4.70	–	–
COc1ccc2c(c1)C[C@@H](C(=O)Nc1ccc(-c3cn[nH]c3)cc1OCCN1CCCC1)CO2	< 4.70	6.39	7.52	< 4.70	–	–
COc1ccc2c(c1)C[C@H](C(=O)Nc1ccc(-c3cn[nH]c3)cc1OCCN1CCCC1)CO2	5.02	> 8.40	> 9.00	5.89	> 9500	> 1200
COc1ccc2c(c1)C[C@@H](C(=O)Nc1ccc(-c3cn[nH]c3)cc1OCCN(C)C)CO2	< 4.70	7.37	–	–	–	–
COc1ccc2c(c1)C[C@H](C(=O)Nc1ccc(-c3cn[nH]c3)cc1OCCCO)CO2	6.19	> 8.40	> 9.00	7.13	–	–
COc1ccc2c(c1)C[C@H](C(=O)Nc1ccc(-c3cn[nH]c3)cc1O[C@H]1CCN(C)C1)CO2	5.13	> 8.40	> 9.00	6.53	–	–
COc1ccc2c(c1)C[C@@H](C(=O)Nc1ccc(-c3cn[nH]c3)cc1O[C@H]1CCN(C)C1)CO2	< 4.70	6.05	7.47	–	–	–
COc1ccc2c(c1)C[C@H](C(=O)Nc1ccc(-c3cn[nH]c3)cc1O[C@@H]1CCN(C)C1)CO2	5.46	> 8.40	> 9.00	6.58	–	–
COc1ccc2c(c1)C[C@@H](C(=O)Nc1ccc(-c3cn[nH]c3)cc1OCCCO)CO2	< 4.70	6.28	7.46	–	–	–
